Data on 4 sequences can be found in US20230357373A1, “METHODS AND COMPOSITIONS FOR […] TREATING FIBROSIS” (Mie University, priority 2019, published 2023).

For series [1], the system named is A549 alveolar epithelial cells. The series can be described thus: Apoptosis assay by flow cytometry (annexin V / propidium iodide) in A549 cells. Type of series: cell-based, human. The note with it: for apoptosis of alveolar epithelial cells: 10 μM peptide, 24 h. On the procedure:
(§1) The A549 and NHBE cells were cultured in DMEM supplemented with 10% fetal calf serum, 0.03% (w/v) L-glutamine, 100 IU/ml penicillin and 100 μg/ml streptomycin in a humidified, 5% CO2 atmosphere at 37° C. We used A549 cell lines in most experiments because they have higher potential growth and mimic the phenotype of alveolar type II cells more than primary NHBE cells (NPL82, NPL83); and in addition, these primary cells usually easily change phenotype or become senescent after a short period of culture.
(§2) A549 and NBHE cells (4×10^5 cells/well) were seeded into 12-well plates, cultured to sub-confluency, washed and then cultured in serum free medium containing 10% of each bacterial supernatant for 48 h. Non-inoculated hypersaline medium was used as control. The cells were analyzed for apoptosis by flow cytometry (FACScan, BD Biosciences, Oxford, UK) after staining with fluorescein-labelled annexin V and propidium iodide (FITC Annexin V Apoptosis Detection Kit with PI, Biolegend, San Diego, CA). Flow cytometry gating strategy used in the experiments is described in FIGS. 34A-34C. Under physiological conditions, phosphatidylcholine is exposed externally while phosphatidylserine (PS) is located on the inner surface of the lipid bilayer of cellular membranes. See NPL84. During apoptosis, PS is translocated from the cytoplasmic face of the plasma membrane to the cell surface. Id.
(In general: In flow cytometry, cells or beads pass a laser one at a time.)

The test system of series [2] is normal human bronchial epithelial (NHBE) cells. The series can be described thus: Apoptosis assay by flow cytometry in normal human bronchial epithelial cells. Type of series: cell-based. The note with it: 10 μM, 48 h. On the procedure: More specifically, FIGS. 19A-19B show a flow cytometry analysis of normal human bronchial epithelial (NHBE) cells after culturing for 48 h in DMEM medium containing 10 μM of corisin or of its scrambled sequence. Each treatment group had n=4. Bars indicate the means ±S.D. Statistical analysis by ANOVA with Tukey's test. *p<0.001.
as §1
A549 and NBHE cells (4×10^5 cells/well) were seeded into 12-well plates, cultured to sub-confluency, washed and then cultured in serum free medium containing 10% of each bacterial supernatant for 48 h. Non-inoculated hypersaline medium was used as control. The cells were analyzed for apoptosis by flow cytometry (FACScan, BD Biosciences, Oxford, UK) after staining with fluorescein-labelled annexin V and propidium iodide (FITC Annexin V Apoptosis Detection Kit with PI, Biolegend, San Diego, CA). […]

For series [3], the system named is A549 alveolar epithelial cells. The experiment in a line: Transmission electron microscopy of apoptotic cells. To be noted: 5 μM, 16 h. Format: cell-based, human. On the procedure: A549 cells (10×10^4 cells/ml) were plated on a collagen-coated 8-well chamber slides (BD Bioscience, San Jose, CA) and cultured until semi-confluent. Cells were serum-starved for 6 h and stimulated with the pro-apoptotic peptide (5 μM) for 16 h. Cells were fixed with 2% fresh formaldehyde and 2.5% glutaraldehyde in 0.1 M sodium cacodylate buffer (pH 7.4) for 2 h at room temperature. After washing with 0.1 M cacodylate buffer (pH 7.4), they were postfixed with 1% OsO4 in the same buffer for 2 h at 4° C. The samples were rinsed with distilled water, stained with 1% aqueous uranyl acetate for 2 h or overnight at room temperature, dehydrated with ethanol and propylene oxide, and embedded in epon (Epon 812 resin, Nakalai). After removal of the cells from the glass, ultra-thin sections (94 nm) were cut, stained with uranyl acetate and Reynolds's lead citrate, and viewed with a transmission electron microscope (JEM-1010, JEOL, Tokyo, Japan).

A further series deals with human Jurkat T cells. The experiment in a line: Apoptosis flow cytometry in T cells. Type of series: cell-based. The note with it: 10 μg/ml, 48 h. On the procedure:
FIGS. 21E and 21F show a flow cytometry analysis of human Jurkat T cells after culturing for 48 h in DMEM medium containing 10 μg/ml corisin. Each treatment group had n=4. Bars indicate the means ±S.D. Statistical analysis was performed by ANOVA with Tukey's test.
as §2

The next series deals with TGFβ1 TG mice. The experiment in a line: Intratracheal instillation of corisin in TGFβ1 TG mice with lung fibrosis. Format: in vivo, mouse. To be noted: intratracheal once daily for two days, euthanasia day 3, vs control mice. The text has this:
To investigate whether corisin can exacerbate the lung fibrotic disease in vivo, we separated TGFβ1 TG mice into three groups with matched level of lung fibrosis (see FIGS. 25A and 25B) and treated them with saline, scrambled peptide or corisin by the intratracheal route once daily for two days before euthanasia on day 3 (see FIG. 6A).
Under profound anesthesia, we collected bronchoalveolar lavage fluid for biochemical analysis and cell counting. Briefly, bronchoalveolar lavage fluid was performed by cannulating the trachea with a 20-gauge needle and infusing saline solutions into the lungs in accordance with NPL68. The samples were centrifuged and the supernatants were stored at −80° C. until analysis. The cell pellets were re-suspended in physiological saline solution and the number of cells was counted. A nucleocounter from ChemoMetec (Allerød, Denmark) was used for cell counting and the cells were stained with May-Grünwald-Giemsa (Merck, Darmstadt, Germany) to count differential cells. Mice were sacrificed by anesthesia overdose, and the lungs were resected to fix in formalin, embedded in paraffin and prepared for hematoxylin and eosin staining. The severity of lung fibrosis was quantitated based on the Ashcroft criteria. See NPL67. The level of TGFβ1 was measured using a commercial enzyme immunoassay kit from BD Biosciences Pharmingen (San Diego, CA).
Three groups of TGFβ1 TG mice (each n=5 or n=4) with matched grade (level) of lung fibrosis as assessed by CT score underwent intratracheal instillation of corisin or scrambled peptide or 0.9% NaCl solution on days 1 and 2 and sacrificed on day 3 to evaluate changes in lung inflammation and fibrosis. WT mice (n=3) without lung fibrosis treated with 0.9% NaCl solution were used as controls.
Staining of terminal deoxynucleotidyl transferase dUTP Nick-End Labeling (TUNEL) was performed at the Biopathology Institute Corporation (Kunisaki, Oita, Japan) by using Alexa Fluor 594 goat anti-rabbit IgG and slow-fade gold-antifade reagent with 4′,6-diamidino-2-phenylindole (DAPI) or by using ApopTag terminal deoxynucleotidyl transferase (Merck Millipore, Burlington, MA), anti-digoxigenin-peroxidase and 3,3′-diaminobenzidine. Quantification of apoptotic areas was performed using the WinROOF software (Mitani Corporation, Tokyo, Japan) and the values were averaged for each individual mouse.

The test system of series [4] is human umbilical vein endothelial cells. The experiment in a line: Apoptosis flow cytometry in vascular endothelial cells. To be noted: 10 μg/ml, 48 h. Format: cell-based. On the procedure: FIGS. 21C and 21D show a flow cytometry analysis of human umbilical vein endothelial cells after culturing for 48 h in DMEM medium containing 10 μg/ml corisin. Each group had n=4.
as §2

The test system of series [5] is normal human bronchial epithelial (NHBE) cells. The series can be described thus: Western blotting of cleaved caspase-3 and Akt in NHBE cell lysates. Format: cell-based. On the procedure:
Each treatment group had n=4. A representative blot of each treatment group is shown.
FIGS. 19D and 19E show the intensity of the Western blot membrane bands as quantified by densitometry using Image? software. Each treatment group had n=4. Bars indicate the means ±S.D. Statistical analysis was performed by one-tailed Mann-Whitney U test. *p<0.05.
The cells for Western blot analysis were washed twice with ice-cold phosphate-buffered saline and then lysed in radioimmunoprecipitation assay (RIPA) buffer (10 mM Tris-Cl (pH 8.0), 1 mM EDTA, 1% Triton X-100, 0.1% sodium deoxycholate, 0.1% SDS, 140 mM NaCl, 1 mM phenylmethylsulfonyl fluoride) supplemented with protease/phosphatase inhibitors (1 mM orthovandate, 50 mM β-glycerophosphate, 10 mM sodium pyrophosphate, 5 μg/mL leupeptin, 2 μg/mL aprotinin, 5 mM sodium fluoride). The suspensions were centrifuged (17,000 x g, 10 min at 4° C.), and the protein content was determined using Pierce BCA protein assay kit (Thermo Fisher Scientific Incorporation, Waltham, MA). Equal amounts of cellular lysate protein were mixed with Laemmli sample buffer and separated by SDS-PAGE. […] The intensity of the bands was quantified by densitometry using the public domain NIH imageJ program (Wayne Rasband, NIH, Research Service Branch).

For a further series, the system named is HFL1 lung fibroblasts. The series can be described thus: Apoptosis flow cytometry in lung fibroblasts. Type of series: cell-based. The note with it: 10 μg/ml, 48 h. On the procedure: FIGS. 21A and 21B show a flow cytometry analysis of HFL1 lung fibroblasts after culturing for 48 h in DMEM medium containing 10 μg/ml corisin. Each had with n=4.
as §2

As for “NRVYNGPAASPVSEGMPIN (listed as Staphylococcus epidermidis) [scrambled peptide, reference compound]”, the “apoptosis of alveolar epithelial cells” value in series [1] is listed as “not”. Besides, in series [2], the “apoptosis of normal human bronchial epithelial cells” value was “did not”.
Take “IVMPESGGNPNAVNPAGYR (listed as Staphylococcus warneri) [1 amino acid change from Staphylococcus nepalensis derivative]”: in series [1] (5 μM peptide, 48 h), the “apoptosis of A549 alveolar epithelial cells” value was “induces apoptosis”.
In the case of “IIARESNGQLHARNASGAA (listed as Staphylococcus epidermidis) [reference compound]”, the “apoptosis of alveolar epithelial cells” value in series [1] was “no pro-apoptotic effect”.
“IVMPESSGNPNAVNPAGYR (listed as Staphylococcus cohnii) [corisin, peptide of 19 amino acid residues, segment of transglycosylase 351 IsaA of Staphylococcus nepalensis strain CNDG]”: the “apoptotic property by transmission electron micrographs” value in series [3] is listed as “confirmed the apoptotic property”. The “apoptotic activity on lymphocyte cell line” value with human Jurkat T cells is “no apoptotic activity”. In the series on TGFβ1 TG mice, the “apoptosis of epithelial cells in the lungs” value is recorded as “enhanced”; the “collagen deposition in the lungs” value was “increased”; the “concentration of inflammatory cytokines and chemokines in the lungs” value is “increased”; the “infiltration of macrophages, lymphocytes and neutrophils in the lungs” value was “significantly increased”. Also, the “pro-apoptotic activity after heating” value in series [1] (5 μM, incubated at 85° C. for 15 min before adding to A549 cells for 48 h) is on record as “heat-resistant”. Besides, in series [1], the “apoptosis of alveolar epithelial cells” value was “induces apoptosis of alveolar epithelial cells”. In addition, in series [1] (corisin 5 or 10 μg/ml vs supernatant protein 10 or 100 μg/ml, 48 h), the “apoptotic activity compared with equal protein concentrations of supernatant” value is listed as “significantly more potent”. In addition, the “pro-apoptotic effect on A549 cells” value in series [1] (increasing concentrations of synthetic corisin, 48 h, DMEM) is recorded as “recapitulated the pro-apoptotic effect of the staphylococcal isolate supernatant in a dose dependent manner”. The “apoptotic activity on vascular endothelial cell” value in series [4] is reported as “no apoptotic activity”. Besides, the “apoptosis of normal human bronchial epithelial cells” value in series [2] is given as “significantly enhanced apoptosis”. For the same sequence, in series [5], the Akt activation result is reported as “decreased” and the “cleavage of caspase-3” value is on record as “increased”. In the series with HFL1 lung fibroblasts, the “apoptotic activity on lung fibroblast” value is “no apoptotic activity”.
